The subject of this assay is 855422-203-R-J1-PDC spheroids with HUVEC/MSC, viability. In words: Anticancer human tumor 855422-203-R-J1-PDC patient-derived bladder carcinoma cell line growth inhibition [PI3K]. Particulars: for viability, T/C: stronger effect = lower value. The source says: Combinatorial screen of targeted agents with the PI3K inhibitors inavolisib, alpelisib, duvelisib, and copanlisib in multi-cell type tumor spheroids
A high-throughput screen of multi-cell type tumor spheroids was designed to identify active combinations of targeted small molecules and PI3K pathway inhibitors. Complex spheroids include a stromal component modeled by human endothelial cells (HUVEC) and fibroblasts modeled by human mesenchymal stem cells (MSCs). The concentration ranges selected for each drug and investigational agent were based upon clinically achievable concentrations if the clinical Cmax of the agent was known.
Compounds. The drugs and investigational agents: inavolisib (NSC800729), alpelisib (NSC765974), duvelisib (NSC772469), copanlisib (NSC816437), ipatasertib (NSC767898), afuresertib (NSC778305), talazoparib (NSC767125), sapanisertib (NSC764658), selumetinib (NSC741078), tovorafenib (DAY101, NSC766906), vemurafenib (NSC761431), ravoxertinib (NSC781343), sotorasib (NSC818433), MRTX1133 (NSC 836407), abemaciclib (NSC 768073), palbociclib (NSC758247), venetoclax (NSC 766270), SY5609 (NSC837396), enzalutamide (NSC755605), and darolutamide (NSC825331), were obtained from the National Cancer Institute (NCI) Developmental Therapeutics Program Chemical Repository. The FDA-approved anticancer drug set is available from the NCI Developmental Therapeutics Program. […] The stock solutions were prepared in dimethyl sulfoxide (DMSO, Sigma-Aldrich, St. Louis, MO, cat. D2650) at 800-fold the tested concentration and stored at -70 degrees C prior to their use. All drugs and investigational agents were tested over a range starting from a high concentration at or near the clinical Cmax and decreasing in half-log increments. If the clinical Cmax for an agent had not been determined, the highest concentration tested was 10 microM.
Cell Culture. All cells were maintained in an incubator at 37 degrees C and 5% CO2 with 95% humidity. The PDC lines were cultured according to standard operating procedures established by the NCI PDMR (https://pdmr.cancer.gov/sops/default.htm). All PDCs were thawed and cultured in Matrigel-coated flasks prepared with a working solution of 1X Ham's F-12 nutrient mix, without supplementation (Invitrogen, Waltham, MA, cat. 11765054), 100 U/mL penicillin-streptomycin (Invitrogen, cat. 15140122), and 2.5% Matrigel (Corning Inc., Corning, NY, cat. 354248) for the first three passages. The 354836-022-R-J1-PDC, 475296-252-R-J1-PDC, and 997726-040-R-J2-PDC lines were cultured in 6A media, which includes advanced DMEM/F-12 (Thermo Fisher Scientific, cat. 12634028), 10 mM HEPES (Thermo Fisher Scientific, cat. 15630080), 1X GlutaMAX supplement (Thermo Fisher Scientific, cat. 35050061), 0.1 mg/mL primocin (InvivoGen, San Diego, CA, cat. ant-pm-2), 10% defined fetal bovine serum, heat inactivated (HyClone Laboratories Inc., Logan, UT, cat. SH30070.03HI), 50% L-WRN conditioned media (ATCC, cat. CRL-3276), 1.25 mM N-Acetyl-L-cysteine (Sigma-Aldrich, cat. A9165), 10 mM nicotinamide (Sigma-Aldrich, cat. N0636), 1X B-27 supplement (Thermo Fisher Scientific, cat. 17504044), 1X N-2 supplement (Thermo Fisher Scientific, cat. 17502048), and 10 microM Y-27632 dihydrochloride (Tocris Bioscience, Bristol, United Kingdom, cat. 1254). The 624824-186-R-J2-PDC line was cultured in 6C/Colon 1B media, which includes all 6A media components plus 50 ng/mL human EGF recombinant protein (Thermo Fisher Scientific, cat. PHG0311). […]

Values joined by “and” are separate entries in the source; they are usually repeats but may differ in a detail not shown here. Equal entries are not always repeated. A value given as a limit tells only on which side of the number the result lay.

Usually viability, T/C stands for the result in the treated group divided by that in the control group, in per cent. For orientation: IC50 means the concentration that inhibits the measured activity by half.
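Further: agents incubated with spheroids for one week before read-out.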
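Wherever viability, T/C is given: 100% = DMSO vehicle-treated control wells.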

For `C#Cc1c(F)ccc2cc(O)cc(-c3ncc4c(N5CC6CCC(C5)N6)nc(OCC56CCCN5CC(F)C6)nc4c3F)c12` (stereo not drawn), the viability, T/C was 110% [middle of 4 runs] (compound 0.0316 µM); 101% (2×) and 94.4% and 83.5% (compound 0.1 µM); 109% [middle of 4 runs] (compound 0.316 µM); 103% [middle of 4 runs] (compound 1 µM); 109% [middle of 4 runs] (compound 3.16 µM); 114% (2×) and 107% and 112% (compound 10 µM). The IC50 (curve of compound) was greater than 10000 nM.
For `C=CC(=O)N1CCN(c2nc(=O)n(-c3c(C)ccnc3C(C)C)c3nc(-c4c(O)cccc4F)c(F)cc23)C(C)C1` (stereo not drawn), the viability, T/C was 109% [middle of 4 runs] (compound 0.0316 µM); 95.2% [middle of 4 runs] (compound 0.1 µM); 117% [middle of 4 runs] (compound 0.316 µM); 108% [middle of 4 runs] (compound 1 µM); 122% [middle of 4 runs] (compound 3.16 µM); 121% [middle of 4 runs] (compound 10 µM). Further, the IC50 (curve of compound) was greater than 10000 nM.
For `CC1(C)CCC(Nc2ncc(C(F)(F)F)c(-c3c[nH]c4c(P(C)(C)=O)c(C#N)ccc34)n2)CN1` (stereo not drawn), the viability, T/C (compound 0.0316 µM) was 29.6% [middle of 4 runs]; the viability, T/C (compound 0.1 µM) was 25% [middle of 4 runs]; the viability, T/C (compound 0.316 µM) is 27.7% [middle of 4 runs]; the viability, T/C (compound 1 µM) was 30.7% [middle of 4 runs]; the viability, T/C (compound 3.16 µM) was 28.9% [middle of 4 runs]; the viability, T/C (compound 10 µM) is 5.48% [middle of 4 runs]. The IC50 (curve of compound) was less than 31.6 nM.
For the compound `CCCS(=O)(=O)Nc1ccc(F)c(C(=O)c2c[nH]c3ncc(-c4ccc(Cl)cc4)cc23)c1F`, the viability, T/C reads like this: (compound 0.1 µM) 96.7% [middle of 4 runs]; (compound 0.316 µM) 108% (2×) and 99.2% and 92.2%; (compound 1 µM) 87.6% [middle of 4 runs]; (compound 3.16 µM) 65.7% [middle of 4 runs]; (compound 10 µM) 0.53% [middle of 4 runs]. In addition, the 50% inhibitory concentration (IC50) (curve of compound) is 4.16 µM [middle of 4 runs].
Regarding `Cn1ncc(Cl)c1-c1cc(C(=O)NC(CN)Cc2cccc(F)c2)sc1Cl` (stereo not drawn), the viability, T/C by setting is: (compound 0.0316 µM) 93.2% [middle of 4 runs]; (compound 0.1 µM) 75.2% [middle of 4 runs]; (compound 0.316 µM) 69.4% [middle of 4 runs]; (compound 1 µM) 49.7% [middle of 4 runs]; (compound 3.16 µM) 28.2% [middle of 4 runs]; (compound 10 µM) 8.18% [middle of 4 runs]. The 50% inhibitory concentration (IC50) (curve of compound) was 936 nM [middle of 4 runs].
For `Cn1nccc1Nc1nccc(-c2ccn(C(CO)c3ccc(Cl)c(F)c3)c(=O)c2)n1` (stereo not drawn), the viability, T/C is, setting by setting: (compound 0.0316 µM) 112% [middle of 4 runs]; (compound 0.1 µM) 99.8% [middle of 4 runs]; (compound 0.316 µM) 108% [middle of 4 runs]; (compound 1 µM) 90.7% [middle of 4 runs]; (compound 3.16 µM) 93.1% [middle of 4 runs]; (compound 10 µM) 44% [middle of 4 runs]. The IC50 (curve of compound) is 8.75 µM [middle of 4 runs].
Turning to `Cn1cnc2c(F)c(Nc3ccc(Br)cc3Cl)c(C(=O)NOCCO)cc21` + CC(Nc1ccc2c(c1)OCCn1cc(N3C(=O)OCC3C(F)F)nc1-2)C(N)=O, the IC50 is 2280 nM (curve of first compound, second compound 0.00316 µM); 2150 nM (curve of first compound, second compound 0.01 µM); 1870 nM (curve of first compound, second compound 0.0316 µM); 769 nM (curve of first compound, second compound 0.1 µM); less than 9.49 nM (curve of first compound, second compound 0.316 µM); less than 9.49 nM (curve of first compound, second compound 1 µM). Moreover, the viability, T/C is 91.7% (second compound 0.00316 µM, first compound 0.00949 µM); 83.8% (second compound 0.00316 µM, first compound 0.03 µM); 104% (second compound 0.00316 µM, first compound 0.0949 µM); 83.2% (second compound 0.00316 µM, first compound 0.3 µM); 82.5% (second compound 0.00316 µM, first compound 0.949 µM); 39.8% (second compound 0.00316 µM, first compound 3 µM). For the same compound, the viability, T/C reads like this: (second compound 0.01 µM, first compound 0.00949 µM) 95.9%; (second compound 0.01 µM, first compound 0.03 µM) 89.1%; (second compound 0.01 µM, first compound 0.0949 µM) 97.7%; (second compound 0.01 µM, first compound 0.3 µM) 81.4%; (second compound 0.01 µM, first compound 0.949 µM) 80.9%; (second compound 0.01 µM, first compound 3 µM) 37.9%. In addition, the viability, T/C reads like this: (second compound 0.0316 µM, first compound 0.00949 µM) 81%; (second compound 0.0316 µM, first compound 0.03 µM) 83.4%; (second compound 0.0316 µM, first compound 0.0949 µM) 91.5%; (second compound 0.0316 µM, first compound 0.3 µM) 92.3%; (second compound 0.0316 µM, first compound 0.949 µM) 75%; (second compound 0.0316 µM, first compound 3 µM) 32.6%. In addition, the viability, T/C runs as follows: (second compound 0.1 µM, first compound 0.00949 µM) 64.9%; (second compound 0.1 µM, first compound 0.03 µM) 67.1%; (second compound 0.1 µM, first compound 0.0949 µM) 67.3%; (second compound 0.1 µM, first compound 0.3 µM) 71.3%; (second compound 0.1 µM, first compound 0.949 µM) 46%; (second compound 0.1 µM, first compound 3 µM) 22.2%. The viability, T/C was 47.6% (second compound 0.316 µM, first compound 0.00949 µM); 45.7% (second compound 0.316 µM, first compound 0.03 µM); 47.3% (second compound 0.316 µM, first compound 0.0949 µM); 38.3% (second compound 0.316 µM, first compound 0.3 µM); 28.6% (second compound 0.316 µM, first compound 0.949 µM); 9.16% (second compound 0.316 µM, first compound 3 µM). Besides, the viability, T/C (second compound 1 µM, first compound 0.00949 µM) is 30.4%; the viability, T/C (second compound 1 µM, first compound 0.03 µM) was 28.1%; the viability, T/C (second compound 1 µM, first compound 0.0949 µM) was 25.3%; the viability, T/C (second compound 1 µM, first compound 0.3 µM) was 21.3%; the viability, T/C (second compound 1 µM, first compound 0.949 µM) was 16.1%; the viability, T/C (second compound 1 µM, first compound 3 µM) is 4.67%.

(Values after PubChem BioAssay AID1963967 (Molecular Pharmacology Branch, DTP, NCI, 2024).)
